Measured values as given in article PMC9143738, “New Chemotypes for the Inhibition of (p)ppGpp Synthesis in the Quest for New Antimicrobial Compounds” (Molecules, 2022).

Tests used:
Assay type in all cases: binding, S. equisimilis
RelSeq 1–385 [1] = molecular target: T1, RelSeq 1–385 (Streptococcus dysgalactiae subsp. equisimilis, UniProt Q54089); experiment: Thermal shift assay on RelSeq 1–385
T1 construct: His-tag (C); host or cells: BL21(DE3) Escherichia coli
From the text: Thermal shift is an experimental technique in which protein thermal denaturation is monitored following the increase in fluorescence reported by a protein-bound dye. In particular, an environment-sensitive hydrophobic dye (e.g., SYPRO Orange) binds to hydrophobic regions that become progressively exposed during thermal denaturation, resulting in an increase in its fluorescence emission. Since the binding of small molecules (e.g., fragments) to the protein can cause conformational changes that affect its melting temperature, this technique allows the screening of several compounds in a range of concentrations without consuming sizeable amounts of protein.
We therefore evaluated the affinity of the 18 fragments selected from our in silico screening for the bifunctional protein RelSeq by titration of the protein in a thermal shift assay (Table 1).
(§1) Thermal shift assays on selected fragments vs. RelSeq constructs. The binding of the selected fragments to RelSeq constructs was assessed by titration of the protein in thermal shift assays, performed using a Step One Real-Time PCR system (Thermo Fisher Scientific, Waltham, MA, USA). Assays were performed in 20 mM Tris-HCl, pH 8, containing 150 mM NaCl. The final protein concentration was kept at 0.5 mg/mL for all RelSeq constructs, and the fluorescent Protein Thermal Shift Dye (Thermo Fisher Scientific, Waltham, MA, USA) was used to monitor protein unfolding within the excitation/emission ranges 470–505/540–700 nm. […] Assays were performed in triplicate at a final volume of 15 µL in MicroAmp™ Fast Optical 48-well reaction plates (Thermo Fisher Scientific, Waltham, MA, USA) sealed with adhesive films. Plates were heated from 25 to 90 °C with a heating rate of 0.5 °C/min. The Kd of protein–ligand complexes engaged by RelSeq constructs with the tested fragments was calculated from the plot of protein melting temperature variations as a function of fragment concentrations with the equation for Ligand Binding (1 site) provided with the software GraFit 5.0 (Erithacus Software, Staines, UK).

[2] = molecular target: T2, RelSeq SYNTH (residues 79–385) (Streptococcus dysgalactiae subsp. equisimilis, UniProt Q54089); experiment: Thermal shift assay on RelSeq SYNTH; settings: titration 0.3–10 mM, pH 8
T2 construct: His-tag (C); made in house; host or cells: BL21(DE3) Escherichia coli
Procedure: as §1, with “USA).” for “USA). Assays were performed in 20 mM Tris-HCl, pH 8, containing 150 mM NaCl. The final protein concentration was kept at 0.5 mg/mL for all RelSeq constructs, and the fluorescent Protein Thermal Shift Dye (Thermo Fisher Scientific, Waltham, MA, USA) was used to monitor protein unfolding within the excitation/emission ranges 470–505/540–700 nm.”

[3] = molecular target: T3, RelSeq HYD (residues 1–224) (Streptococcus dysgalactiae subsp. equisimilis, UniProt Q54089); experiment: Thermal shift assay on RelSeq HYD; settings: titration 0.3–10 mM, pH 8
T3 construct: His-tag (C); made in house; host or cells: BL21(DE3) Escherichia coli
Procedure: as §1, with “USA).” for “USA). Assays were performed in 20 mM Tris-HCl, pH 8, containing 150 mM NaCl. The final protein concentration was kept at 0.5 mg/mL for all RelSeq constructs, and the fluorescent Protein Thermal Shift Dye (Thermo Fisher Scientific, Waltham, MA, USA) was used to monitor protein unfolding within the excitation/emission ranges 470–505/540–700 nm.”

RelSeq 1–385 [4] = molecular target: T1, RelSeq 1–385; experiment: STD-NMR with RelSeq (1–385); settings: fragment:protein ratio 1000:1; fragment concentration 3 mM
Procedure: (§2) The relatively weak affinity of the fragments measured by TSA directed us towards NMR methods to assess the specificity of the fragments-protein interactions. […] In particular, STD (Saturation Transfer Difference) exploits NOE effects between the protein and the ligand to map target–ligand interactions and to characterize biologically relevant complexes.
(§3) STD-NMR experiments on selected fragments vs. RelSeq constructs. Experiments were performed on a 600 MHz Bruker Avance spectrometer. All experiments were acquired at 298 and 283 K on the free ligands in deuterated phosphate buffer pH 7.4. A DMSO-d6 percentage of about 5% was added to dissolve the fragments. In 1D spectra, water suppression was achieved by excitation sculpting sequence. STD NMR experiments were performed using WATERGATE 3-9-19 pulse sequence for water suppression. On-resonance irradiation of the protein was performed at a chemical shift of −0.05 ppm and 10 ppm; off-resonance irradiation was applied at 200 ppm, where no protein signals were visible. Selective pre-saturation of the protein was achieved by a train of Gauss-shaped pulses of 49 ms in length each. STD spectra were acquired with a saturation time of 2.94 s for all compounds. Blank experiments were conducted in the absence of protein in order to avoid artifacts.

RelSeq SYNTH (79–385) = molecular target: T4, RelSeq SYNTH (79–385) (Streptococcus dysgalactiae subsp. equisimilis, UniProt Q54089); experiment: STD-NMR with RelSeq SYNTH; settings: fragment:protein ratio 1000:1; fragment concentration 3 mM
T4 construct: His-tag (C); made in house; host or cells: BL21(DE3) Escherichia coli
Procedure: as §2, §3

RelSeq HYD (1–224) = molecular target: T5, RelSeq HYD (1–224) (Streptococcus dysgalactiae subsp. equisimilis, UniProt Q54089); experiment: STD-NMR with RelSeq HYD; settings: fragment:protein ratio 1000:1; fragment concentration 3 mM
T5 construct: His-tag (C); made in house; host or cells: BL21(DE3) Escherichia coli
Procedure: as §2, §3

RelSeq 1–385 [5] = molecular target: T1, RelSeq 1–385; experiment: Tryptophan assay; settings: read-out: Kd RelSeq 1–385 measured by tryptophan assay (converted)
From the text: With the aim of studying protein–ligand interactions between RelSeq constructs and selected fragments, we evaluated the use of different techniques, such as tryptophan assay, microscale thermophoresis (MST), isothermal calorimetry (ITC) or thermal shift assay (TSA). The tryptophan assay is based on ligand-induced conformational changes in the local environment surrounding tryptophan residues in the target protein. Irradiation at 280 nm is followed by the detection of tryptophan fluorescence emission at different wavelengths. We used this technique to measure the Kd values of the natural substrates GDP and ATP (see below), but it is not applicable in the case of fragments due to their high absorbance at 280 nm. On the other hand, the currently available protein-labeling reagents for MST were not compatible with our protein constructs. We chose TSA over ITC due to its higher potential throughput and lower amount of protein required.

[6] = thermal shift assay, titration 0.3–10 mM, pH 8

T2 sequence (Q54089 79-385): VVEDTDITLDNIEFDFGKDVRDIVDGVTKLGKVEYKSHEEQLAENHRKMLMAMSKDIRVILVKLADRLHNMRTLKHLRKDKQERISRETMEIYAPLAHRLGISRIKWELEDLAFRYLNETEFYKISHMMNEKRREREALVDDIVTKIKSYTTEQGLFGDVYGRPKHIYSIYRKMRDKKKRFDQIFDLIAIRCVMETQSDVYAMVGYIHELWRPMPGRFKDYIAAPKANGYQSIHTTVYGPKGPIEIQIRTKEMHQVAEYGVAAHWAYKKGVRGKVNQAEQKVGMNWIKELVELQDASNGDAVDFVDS
T3 sequence (Q54089 1-224): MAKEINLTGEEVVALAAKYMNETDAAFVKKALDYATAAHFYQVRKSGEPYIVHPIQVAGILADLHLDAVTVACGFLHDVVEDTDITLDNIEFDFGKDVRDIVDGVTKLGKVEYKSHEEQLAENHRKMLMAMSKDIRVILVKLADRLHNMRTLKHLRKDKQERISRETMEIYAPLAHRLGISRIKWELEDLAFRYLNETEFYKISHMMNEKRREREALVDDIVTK
T1 sequence (Q54089 1-385): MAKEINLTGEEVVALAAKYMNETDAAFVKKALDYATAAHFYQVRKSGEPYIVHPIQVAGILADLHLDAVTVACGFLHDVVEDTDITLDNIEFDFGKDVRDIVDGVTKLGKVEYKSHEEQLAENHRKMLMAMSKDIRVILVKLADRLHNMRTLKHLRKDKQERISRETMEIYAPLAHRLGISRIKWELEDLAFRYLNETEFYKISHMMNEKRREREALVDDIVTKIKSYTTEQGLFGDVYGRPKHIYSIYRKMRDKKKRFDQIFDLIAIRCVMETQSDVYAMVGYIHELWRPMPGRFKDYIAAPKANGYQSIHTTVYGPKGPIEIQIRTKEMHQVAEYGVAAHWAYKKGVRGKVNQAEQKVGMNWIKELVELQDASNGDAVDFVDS
T4 sequence (Q54089 79-385): as the sequence (Q54089 79-385) above
T5 sequence (Q54089 1-224): as the sequence (Q54089 1-224) above

Nc1ccccc1C(=O)O [A1]
Kd (RelSeq 1–385 [1]): 1.2 ± 0.3 mM
Kd [2]: 10.8 ± 2.2 mM
Kd RelSeq HYD [3]: No binding
STD-NMR interaction with RelSeq (1–385) (RelSeq 1–385 [4]): good interaction for the aromatic protons
STD-NMR interaction with RelSeq SYNTH (79–385) (RelSeq SYNTH (79–385)): Comparable overall STD intensities
STD-NMR interaction with RelSeq HYD (1–224) (RelSeq HYD (1–224)): did not produce any magnetization transfer

Nc1c(Cl)cc(Cl)cc1C(=O)O [A2]
Kd RelSeq 1–385 (RelSeq 1–385 [1]; [6]): No binding
Kd RelSeq SYNTH [2]: No binding
Kd RelSeq HYD [3]: No binding
STD-NMR interaction with RelSeq (1–385) (RelSeq 1–385 [4]): did not show any significant interaction

Nc1ccc(F)cc1C(=O)O [A3]
Kd (RelSeq 1–385 [1]): 1.5 ± 0.1 mM
Kd [2]: 5.5 ± 0.9 mM
Kd RelSeq HYD [3]: No binding

Nc1cccc(C(=O)O)c1 [A4]
Kd (RelSeq 1–385 [1]): 6.6 ± 0.1 mM
Kd [2]: 9.8 ± 2.8 mM
Kd RelSeq HYD [3]: No binding

COc1ccc(C(=O)O)cc1N [A5]
Kd (RelSeq 1–385 [1]): 1.1 ± 0.2 mM
Kd [2]: 2.2 ± 0.4 mM
Kd RelSeq HYD [3]: No binding

Nc1ccc(C(=O)O)c(Cl)c1 [A6]
Kd (RelSeq 1–385 [1]): 4.3 ± 1.1 mM
Kd [2]: 6.5 ± 1.2 mM
Kd RelSeq HYD [3]: No binding

COc1cc(C(=O)O)ccc1N [A7]
Kd (RelSeq 1–385 [1]): 4 ± 0.9 mM
Kd [2]: 4.3 ± 0.5 mM
Kd RelSeq HYD [3]: No binding

Nc1ncnc2c1ncn2[C@@H]1O[C@H](COP(=O)(O)OP(=O)(O)OP(=O)(O)O)[C@@H](O)[C@H]1O [ATP, reference compound]
Kd (RelSeq 1–385 [1]; thermal shift assay, titration 0.3–10 mM, pH 8, read-out: Kd RelSeq 1–385): 0.49 ± 0.09 mM
Kd (RelSeq 1–385 [5]): 0.39 mM

OCc1ccc2[nH]cnc2c1 [B1]
Kd RelSeq 1–385 (RelSeq 1–385 [1]; [6]): No binding
Kd RelSeq SYNTH [2]: No binding
Kd RelSeq HYD [3]: No binding
STD-NMR interaction with RelSeq (1–385) (RelSeq 1–385 [4]): did not show any significant interaction

O=C(O)c1ccc2[nH]cnc2c1 [B2]
Kd RelSeq 1–385 (RelSeq 1–385 [1]; [6]): Biphasic
Kd RelSeq SYNTH [2]: No binding
Kd [3]: 1.9 ± 0.7 mM

O=C(O)c1cccc2[nH]cnc12 [B3]
Kd (RelSeq 1–385 [1]): 3.4 ± 0.3 mM
Kd [2]: 4.3 ± 0.4 mM
Kd [3]: 3.3 ± 0.9 mM

O=C(O)c1cc2nc[nH]c2cc1C(=O)O [B4]
Kd RelSeq 1–385 (RelSeq 1–385 [1]; [6]): No binding
Kd RelSeq SYNTH [2]: No binding
Kd RelSeq HYD [3]: No binding

O=C(O)c1ccc2ocnc2c1 [BO1]
Kd (RelSeq 1–385 [1]): 2.2 ± 0.3 mM
Kd [2]: 2.7 ± 0.6 mM
Kd RelSeq HYD [3]: No binding

O=C(O)c1ccc2nn[nH]c2c1 [BT1]
Kd RelSeq 1–385 (RelSeq 1–385 [1]; [6]): No binding
Kd RelSeq SYNTH [2]: No binding
Kd RelSeq HYD [3]: No binding

O=C(O)c1ccc2cc[nH]c2c1 [I1]
Kd (RelSeq 1–385 [1]): 6.5 ± 1.1 mM
Kd [2]: 9.6 ± 1.5 mM
Kd RelSeq HYD [3]: No binding

O=C(O)c1ccc2[nH]ccc2c1 [I2]
Kd (RelSeq 1–385 [1]): 2.5 ± 0.6 mM
Kd [2]: 5.5 ± 0.9 mM
Kd RelSeq HYD [3]: No binding

O=C(O)c1cccc2[nH]ccc12 [I3]
Kd (RelSeq 1–385 [1]): 4 ± 0.5 mM
Kd [2]: 9.9 ± 4.5 mM
Kd RelSeq HYD [3]: No binding

O=C(O)Cc1c[nH]c2ccc(F)cc12 [I4]
Kd (RelSeq 1–385 [1]): 3.2 ± 0.7 mM
Kd [2]: > 15 mM
Kd RelSeq HYD [3]: No binding

CC(C)c1cc(C(=O)O)nc2ncnn12 [TP1]
Kd (RelSeq 1–385 [1]): 3.4 ± 0.8 mM
Kd [2]: 8.3 ± 1.6 mM
Kd RelSeq HYD [3]: No binding
